{"source": "patent US20050148553A1", "about": "“Use of tigecycline, alone, or in combination with rifampin to treat osteomyelitis and/or septic arthritis” (priority 2003, published 2005)", "key": {"[1]": {"tested_on": "vancomycin resistant E. faecium", "conditions": "cited from earlier work"}, "[2]": {"tested_on": "methicillin-resistant Staphylococcus aureus", "conditions": "14 mg/kg bid; cited from earlier work"}, "[3]": {"assay": "Mass balance study, 5 mg/kg intravenous dose", "assay_type": "in vivo, Sprague-Dawley rats", "conditions": "male rats"}, "[4]": {"assay": "Whole body autoradiography after 30-minute 3 mg/kg IV infusion of [^14C]-tigecycline", "assay_type": "in vivo, Long-Evans rats", "experimental": "Male Sprague-Dawley and Long-Evans rats were obtained from Charles River Breeding Laboratories, Raleigh, N.C., and were quarantined for at least one week prior to the start of the study. […] The dosing solution was diluted and radioassayed directly in Ultima Gold scintillation counting cocktail (Packard Inc.). […] All pumps were calibrated prior to the administration of the compound. Rats were anesthetized with isoflurane prior to cardiac puncture exsanguination at the prescribed times after dosing. Sprague-Dawley and Long-Evans rats were sacrificed one per time point at 0.5, 8.5, 24, 72, 168 and 336 hr post-dose. Immediately following euthanasia, each rat was totally immersed in a bath of hexane and dry ice (−75° C.) until frozen. Each carcass was dried and stored at −30° C. until embedded. […] Each frozen rat was sagitally sectioned at −20° C. A sufficient number of sections were collected to ensure sampling of all tissues of interest. The sections were dehydrated overnight in a cryochamber and then rapidly transferred to a dessicator containing CaSO4 to prevent condensation of atmospheric moisture while equilibrating to room temperature. The sections were mounted on cardboard and labeled with [^14C]-labeled black ink with a unique identification number. […] A small piece of Scotch tape was placed over the dried radioactive ink to prevent the contamination of the storage phosphor screens. Phosphor imaging plates, BAS-SR 2025 (Fuji Photo Film Co., Japan) were exposed to bright visible light for 20 minutes using an IP eraser (Raytest, USA Inc., New Castle, Del.) to remove background radiation. Sections and calibration blood standards were concurrently placed in direct contact with Ips and exposed for 7 days. All sections were stored at room temperature in a lead shielding box to minimize background levels. Phosphor images were generated using a Fujifilm BAS-5000 Bio-Imaging Analyzer and quantitated by MCID M2 Software, version 3.2 (Imaging Research Inc., St. Catherines, Ontario, Canada). The STDs and QCs were analyzed using the circular sampling tool in the MCID software program. Areas of interest in whole-body sections were manually outlined with the regional sampling tool to generate count data. Radioactive concentrations in select tissues were determined by digital analysis of the resulting autoradiograms on the basis of a calibration curve. […] The linear regression curve was then used to determine the concentration of unknown radioactivity of study samples. […] Blood samples were combusted using a Model 307 sample oxidizer (Packard Instrument Company). […] Research Triangle Park, N.C.), which applies a model-independent approach and standard procedures as described in Gibaldi and Perrier. Gibaldi, Pharmacokinetics, 1982. […] For IV infusion dosing, C30 min was the concentration at 30 minutes, the first sampling time point. The maximum plasma concentration (Cmax) and the corresponding time of peak concentration following IV administration were obtained directly by numerical inspection from the individual concentration-time data. The terminal half-life was calculated by the ratio of ln2/λz where λz is derived from the terminal slope of the concentration time curve. The area under the plasma concentration versus time curve from zero to infinity was calculated using the trapezoidal rule, where Clast is the last measurable plasma concentration. Tissue to plasma concentration ratios were calculated according to the following equation: Ctissue/Cplasma, where Ctissue equals the drug concentration in tissue (ng equiv./g), and Cplasma equals the drug concentration in plasma (ng equiv./g)."}}}
{"smiles": "CN(C)c1cc(NC(=O)CNC(C)(C)C)c(O)c2c1C[C@H]1C[C@H]3[C@H](N(C)C)C(O)=C(C(N)=O)C(=O)[C@@]3(O)C(O)=C1C2=O", "note": "[Tigecycline]", "values": [{"measurement": "MIC", "setting": "[1]", "result": 0.125, "unit": "µg/mL"}, {"measurement": "efficacy compared with 40 mg/kg vancomycin", "setting": "[2]", "result": "more effective"}]}
{"smiles": "CN(C)c1cc(NC(=O)CNC(C)(C)C)c(O)c2c1C[C@H]1C[C@H]3[C@H](N(C)C)C(O)=C(C(N)=O)C(=O)[C@@]3(O)C(O)=C1C2=O", "note": "[[^14C]-Tigecycline]", "values": [{"measurement": "recovery of radioactivity", "setting": "[3]", "result": "89.4±2.50", "unit": "%"}, {"measurement": "AUC", "setting": "[4]; Blood", "result": 21954, "unit": "Ng eq hr/g"}, {"measurement": "T1/2", "setting": "[4]; Blood", "result": 62, "unit": "h"}, {"measurement": "Mean concentration of total radioactivity", "setting": "[4]; Blood, 0.5 Hrs", "result": 1296, "unit": "ng equiv./g"}, {"measurement": "Tissue:Plasma Ratio", "setting": "[4]; Blood, 0.5 Hrs", "result": 1.33}, {"measurement": "Mean concentration of total radioactivity", "setting": "[4]; Blood, 24 Hrs", "result": 340, "unit": "ng equiv./g"}, {"measurement": "Tissue:Plasma Ratio", "setting": "[4]; Blood, 24 Hrs", "result": 4.81}, {"measurement": "Mean concentration of total radioactivity", "setting": "[4]; Blood, 72 Hrs", "result": 11.8, "unit": "ng equiv./g"}, {"measurement": "Tissue:Plasma Ratio", "setting": "[4]; Blood, 72 Hrs", "result": 5.05}, {"measurement": "Mean concentration of total radioactivity", "setting": "[4]; Blood, 168 Hrs", "result": 2.72, "unit": "ng equiv./g"}, {"measurement": "Tissue:Plasma Ratio", "setting": "[4]; Blood, 168 Hrs", "result": 5.05}, {"measurement": "Mean concentration of total radioactivity", "setting": "[4]; Blood, 336 Hrs", "result": 1.24, "unit": "ng equiv./g"}, {"measurement": "AUC", "setting": "[4]; Blood, first AUC column", "result": 21843, "unit": "Ng eq hr/g"}, {"measurement": "AUC", "setting": "[4]; Plasma", "result": 12938, "unit": "Ng eq hr/g"}, {"measurement": "T1/2", "setting": "[4]; Plasma", "result": 19, "unit": "h"}, {"measurement": "Mean concentration of total radioactivity", "setting": "[4]; Plasma, 0.5 Hrs", "result": 975, "unit": "ng equiv./g"}, {"measurement": "Tissue:Plasma Ratio", "setting": "[4]; Plasma, 0.5 Hrs", "result": 1.00}, {"measurement": "Mean concentration of total radioactivity", "setting": "[4]; Plasma, 24 Hrs", "result": 70.5, "unit": "ng equiv./g"}, {"measurement": "Tissue:Plasma Ratio", "setting": "[4]; Plasma, 24 Hrs", "result": 1.00}, {"measurement": "Mean concentration of total radioactivity", "setting": "[4]; Plasma, 72 Hrs", "result": 4.31, "unit": "ng equiv./g"}, {"measurement": "Tissue:Plasma Ratio", "setting": "[4]; Plasma, 72 Hrs", "result": 1.00}, {"measurement": "Mean concentration of total radioactivity", "setting": "[4]; Plasma, 168 Hrs", "result": "<1.03", "unit": "ng equiv./g"}, {"measurement": "Tissue:Plasma Ratio", "setting": "[4]; Plasma, 168 Hrs", "result": 1.00}, {"measurement": "Mean concentration of total radioactivity", "setting": "[4]; Plasma, 336 Hrs", "result": "<1.03", "unit": "ng equiv./g"}, {"measurement": "AUC", "setting": "[4]; Plasma, first AUC column", "result": 12923, "unit": "Ng eq hr/g"}, {"measurement": "AUC", "setting": "[4]; Skin", "result": 109296, "unit": "Ng eq hr/g"}, {"measurement": "Cmax", "setting": "[4]; Skin", "result": 1997, "unit": "Ng equiv/g"}, {"measurement": "T1/2", "setting": "[4]; Skin", "result": 473, "unit": "h"}, {"measurement": "tissue concentration at 336 hours as % of Cmax", "setting": "[4]; Skin", "result": 8, "unit": "%"}, {"measurement": "Mean concentration of total radioactivity", "setting": "[4]; Skin, 0.5 Hrs", "result": 2502, "unit": "ng equiv./g"}, {"measurement": "Tissue:Plasma Ratio", "setting": "[4]; Skin, 0.5 Hrs", "result": 2.05}, {"measurement": "Mean concentration of total radioactivity", "setting": "[4]; Skin, 24 Hrs", "result": 2363, "unit": "ng equiv./g"}, {"measurement": "Tissue:Plasma Ratio", "setting": "[4]; Skin, 24 Hrs", "result": 8.76}, {"measurement": "Mean concentration of total radioactivity", "setting": "[4]; Skin, 72 Hrs", "result": 1787, "unit": "ng equiv./g"}, {"measurement": "Tissue:Plasma Ratio", "setting": "[4]; Skin, 72 Hrs", "result": 179}, {"measurement": "Mean concentration of total radioactivity", "setting": "[4]; Skin, 168 Hrs", "result": 351, "unit": "ng equiv./g"}, {"measurement": "Tissue:Plasma Ratio", "setting": "[4]; Skin, 168 Hrs", "result": 179}, {"measurement": "Mean concentration of total radioactivity", "setting": "[4]; Skin, 336 Hrs", "result": 211, "unit": "ng equiv./g"}, {"measurement": "AUC", "setting": "[4]; Skin, first AUC column", "result": 58287, "unit": "Ng eq hr/g"}, {"measurement": "AUC", "setting": "[4]; Uveal Tract", "result": 233288, "unit": "Ng eq hr/g"}, {"measurement": "Cmax", "setting": "[4]; Uveal Tract", "result": 2502, "unit": "Ng equiv/g"}, {"measurement": "T1/2", "setting": "[4]; Uveal Tract", "result": 201, "unit": "h"}, {"measurement": "tissue concentration at 336 hours as % of Cmax", "setting": "[4]; Uveal Tract", "result": 1, "unit": "%"}, {"measurement": "Mean concentration of total radioactivity", "setting": "[4]; Uveal Tract, 0.5 Hrs", "result": 1997, "unit": "ng equiv./g"}, {"measurement": "Tissue:Plasma Ratio", "setting": "[4]; Uveal Tract, 0.5 Hrs", "result": 2.57}, {"measurement": "Mean concentration of total radioactivity", "setting": "[4]; Uveal Tract, 24 Hrs", "result": 124, "unit": "ng equiv./g"}, {"measurement": "Tissue:Plasma Ratio", "setting": "[4]; Uveal Tract, 24 Hrs", "result": 25.7}, {"measurement": "Mean concentration of total radioactivity", "setting": "[4]; Uveal Tract, 72 Hrs", "result": 96.5, "unit": "ng equiv./g"}, {"measurement": "Tissue:Plasma Ratio", "setting": "[4]; Uveal Tract, 72 Hrs", "result": 393}, {"measurement": "Mean concentration of total radioactivity", "setting": "[4]; Uveal Tract, 168 Hrs", "result": 74.8, "unit": "ng equiv./g"}, {"measurement": "Tissue:Plasma Ratio", "setting": "[4]; Uveal Tract, 168 Hrs", "result": 393}, {"measurement": "Mean concentration of total radioactivity", "setting": "[4]; Uveal Tract, 336 Hrs", "result": 19.3, "unit": "ng equiv./g"}, {"measurement": "AUC", "setting": "[4]; Uveal Tract, first AUC column", "result": 131346, "unit": "Ng eq hr/g"}, {"measurement": "T1/2", "setting": "[4]; Uveal Tract, listed as [^14C]-tigecycline", "result": 20, "unit": "h"}]}
